Values after ≈ are worked out from the molar mass of the structure shown.
What was measured:
Type in all cases: functional
Bacillus cereus = experiment: Antibacterial activity against Bacillus cereus ATCC 11778 by NCCLS method
Staphylococcus aureus [1] = experiment: Antibacterial activity against Staphylococcus aureus ATCC 29213 by NCCLS method
Streptococcus pneumoniae = experiment: Antibacterial activity against Streptococcus pneumoniae ATCC 6301 by NCCLS method
Bacillus subtilis = experiment: Antibacterial activity against Bacillus subtilis ATCC 23857 by NCCLS method
Staphylococcus aureus [2] = experiment: Antibacterial activity against multidrug-resistant Staphylococcus aureus BAA-39 by NCCLS method
[3] = test system: Staphylococcus epidermidis; experiment: Antibacterial activity against Staphylococcus epidermidis ATCC 12228 by NCCLS method
Clostridium perfringens = experiment: Antibacterial activity against Clostridium perfringens ATCC 10388 by NCCLS method
Bacteroides fragilis = experiment: Antibacterial activity against Bacteroides fragilis ATCC 23745 by NCCLS method
Enterococcus faecium = experiment: Antibacterial activity against vancomycin-resistant Enterococcus faecium ATCC 700221 by NCCLS method
[4] = test system: Staphylococcus epidermidis; experiment: Antibacterial activity against methicillin-resistant Staphylococcus epidermidis ATCC 51625 by NCCLS method
Enterococcus faecalis = experiment: Antibacterial activity against vancomycin-resistant Enterococcus faecalis ATCC 51575 by NCCLS method
Staphylococcus aureus [5] = experiment: Antibacterial activity against methicillin-resistant Staphylococcus aureus ATCC 33591 by NCCLS method

Compound | MIC (Bacillus cereus) [µg/mL] | MIC (Staphylococcus aureus [1]) [µg/mL] | MIC (Streptococcus pneumoniae) [µg/mL] | MIC (Bacillus subtilis) [µg/mL] | MIC (Staphylococcus aureus [2]) [µg/mL] | MIC [3] [µg/mL] | MIC (Clostridium perfringens) [µg/mL] | MIC (Bacteroides fragilis) [µg/mL] | MIC (Enterococcus faecium) [µg/mL] | MIC [4] [µg/mL] | MIC (Enterococcus faecalis) [µg/mL] | MIC (Staphylococcus aureus [5]) [µg/mL]
CCCCNC(=N)c1ccc2[nH]c(-c3ccc(CCc4ccc(-c5nc6cc(C(=N)NCCCC)ccc6[nH]5)cc4)cc3)nc2c1 | 4 (≈ 6.55 µM) | 4 (≈ 6.55 µM) | 1 (≈ 1.64 µM) | 1 (≈ 1.64 µM) | 4 (≈ 6.55 µM) | 0.25 (≈ 0.409 µM) | 0.5 (≈ 0.819 µM) | 32 (≈ 52.4 µM) | 2 (≈ 3.27 µM) | 0.5 (≈ 0.819 µM) | 32 (≈ 52.4 µM) | 2 (≈ 3.27 µM)
CCC(C)NC(=N)c1ccc2[nH]c(-c3ccc(CCc4ccc(-c5nc6cc(C(=N)NC(C)CC)ccc6[nH]5)cc4)cc3)nc2c1 (stereo not drawn) | 0.5 (≈ 0.819 µM) | 1 (≈ 1.64 µM) | 0.12 (≈ 0.196 µM) | 0.25 (≈ 0.409 µM) | 0.5 (≈ 0.819 µM) | < 0.06 | 0.5 (≈ 0.819 µM) | 2 (≈ 3.27 µM) | 0.5 (≈ 0.819 µM) | 0.12 (≈ 0.196 µM) | 2 (≈ 3.27 µM) | 0.25 (≈ 0.409 µM)
CC(C)NC(=N)c1ccc2[nH]c(-c3ccc(CCc4ccc(-c5nc6cc(C(=N)NC(C)C)ccc6[nH]5)nc4)cc3)nc2c1 | 0.5 (≈ 0.857 µM) | 4 (≈ 6.85 µM) | 0.12 (≈ 0.206 µM) | 1 (≈ 1.71 µM) | 8 (≈ 13.7 µM) | 0.25 (≈ 0.428 µM) | 8 (≈ 13.7 µM) | 32 (≈ 54.8 µM) | 1 (≈ 1.71 µM) | 1 (≈ 1.71 µM) | 2 (≈ 3.43 µM) | 4 (≈ 6.85 µM)
N=C(NC1CC1)c1ccc2[nH]c(-c3ccc(CCc4ccc(-c5nc6cc(C(=N)NC7CC7)ccc6[nH]5)cc4)cc3)nc2c1 | 0.25 (≈ 0.432 µM) | 8 (≈ 13.8 µM) | < 0.06 | 1 (≈ 1.73 µM) | 16 (≈ 27.6 µM) | 0.12 (≈ 0.207 µM) | 1 (≈ 1.73 µM) | 32 (≈ 55.3 µM) | 1 (≈ 1.73 µM) | 0.25 (≈ 0.432 µM) | 32 (≈ 55.3 µM) | 8 (≈ 13.8 µM)
CC(C)NC(=N)c1ccc2[nH]c(-c3ccc(CCc4ccc(-c5nc6cc(C(=N)NC(C)C)ccc6[nH]5)cn4)cc3)nc2c1 | 8 (≈ 13.7 µM) | 16 (≈ 27.4 µM) | 8 (≈ 13.7 µM) | 32 (≈ 54.8 µM) | 8 (≈ 13.7 µM) | 2 (≈ 3.43 µM) | 0.5 (≈ 0.857 µM) | 16 (≈ 27.4 µM) | 16 (≈ 27.4 µM) | 4 (≈ 6.85 µM) | 4 (≈ 6.85 µM) | 8 (≈ 13.7 µM)
CC(C)NC(=N)c1ccc2[nH]c(-c3ccc(CCc4ccc(-c5nc6cc(C(=N)NC(C)C)ccc6[nH]5)s4)cc3)nc2c1 | 0.25 (≈ 0.425 µM) | 1 (≈ 1.7 µM) |  | 0.5 (≈ 0.849 µM) | 0.5 (≈ 0.849 µM) | 0.12 (≈ 0.204 µM) | 0.25 (≈ 0.425 µM) | 4 (≈ 6.79 µM) |  | 0.12 (≈ 0.204 µM) | 0.5 (≈ 0.849 µM) | 0.5 (≈ 0.849 µM)
CC(C)NC(=N)c1ccc2[nH]c(-c3ccc(CCc4cc(-c5nc6cc(C(=N)NC(C)C)ccc6[nH]5)cs4)cc3)nc2c1 | 0.25 (≈ 0.425 µM) | 1 (≈ 1.7 µM) | 0.12 (≈ 0.204 µM) | 0.5 (≈ 0.849 µM) | 1 (≈ 1.7 µM) |  | 0.25 (≈ 0.425 µM) | 1 (≈ 1.7 µM) | 0.25 (≈ 0.425 µM) | 0.25 (≈ 0.425 µM) | 1 (≈ 1.7 µM) | 0.25 (≈ 0.425 µM)
N=C(N)c1ccc2[nH]c(-c3ccc(CCc4ccc(-c5nc6cc(C(=N)N)ccc6[nH]5)cc4)cc3)nc2c1 | > 32 | > 32 | > 32 | 32 (≈ 64.2 µM) | > 32 | 4 (≈ 8.02 µM) | > 32 | > 32 | 32 (≈ 64.2 µM) | 32 (≈ 64.2 µM) | > 32 | > 32
CC(C)NC(=N)c1ccc2[nH]c(-c3ccc(CCc4ccc(-c5nc6ccccc6[nH]5)cc4)cc3)nc2c1 | 32 (≈ 64.2 µM) | > 32 | > 32 | > 32 | > 32 | 4 (≈ 8.02 µM) | 1 (≈ 2.01 µM) | > 32 | 16 (≈ 32.1 µM) | 8 (≈ 16 µM) | > 32 | > 32
CC(C)NC(=N)c1ccc(CCc2ccc(-c3nc4cc(C(=N)NC(C)C)ccc4[nH]3)cc2)cc1 | 0.5 (≈ 1.07 µM) | 4 (≈ 8.57 µM) | 0.12 (≈ 0.257 µM) | 1 (≈ 2.14 µM) | 8 (≈ 17.1 µM) | 0.25 (≈ 0.536 µM) | > 32 | 32 (≈ 68.6 µM) | 1 (≈ 2.14 µM) | 1 (≈ 2.14 µM) | 2 (≈ 4.29 µM) | 4 (≈ 8.57 µM)
c1cc(-c2nc3cc(C4=NCCN4)ccc3[nH]2)ccc1CCc1ccc(-c2nc3cc(C4=NCCN4)ccc3[nH]2)cc1 | > 64 | > 64 | > 64 | > 64 | > 64 | > 64 | > 64 | > 64 | > 64 | > 64 | > 64 | > 64
N=C(NC1CCCC1)c1ccc2[nH]c(-c3ccc(CCc4ccc(-c5nc6cc(C(=N)NC7CCCC7)ccc6[nH]5)cc4)cc3)nc2c1 | 0.5 (≈ 0.788 µM) | 1 (≈ 1.58 µM) | 0.25 (≈ 0.394 µM) | 1 (≈ 1.58 µM) | 1 (≈ 1.58 µM) | < 0.06 | 4 (≈ 6.3 µM) | > 32 | 0.25 (≈ 0.394 µM) | 0.12 (≈ 0.189 µM) | 2 (≈ 3.15 µM) | 0.5 (≈ 0.788 µM)
CC(C)NC(=N)c1ccc2[nH]c(-c3ccc(CCc4ccc(-c5nc6cc(C(=N)NC(C)C)ccc6[nH]5)cc4)cc3)nc2c1 | 0.12 (≈ 0.206 µM) | 0.25 (≈ 0.429 µM) | < 0.06 | 0.12 (≈ 0.206 µM) | 0.5 (≈ 0.858 µM) | < 0.06 | 0.25 (≈ 0.429 µM) | 0.5 (≈ 0.858 µM) | 0.12 (≈ 0.206 µM) | 0.125 (≈ 0.214 µM) | 0.25 (≈ 0.429 µM) | 0.25 (≈ 0.429 µM)
N=C(c1ccc2[nH]c(-c3ccc(CCc4ccc(-c5nc6cc(C(=N)N7CCCC7)ccc6[nH]5)cc4)cc3)nc2c1)N1CCCC1 | 1 (≈ 1.65 µM) | 0.5 (≈ 0.824 µM) | > 32 | 2 (≈ 3.3 µM) | 0.5 (≈ 0.824 µM) | 0.25 (≈ 0.412 µM) | 2 (≈ 3.3 µM) | 2 (≈ 3.3 µM) | 2 (≈ 3.3 µM) | 0.25 (≈ 0.412 µM) | 16 (≈ 26.4 µM) | 0.25 (≈ 0.412 µM)
COc1ccc(CCc2ccc(-c3nc4ccc(C(=N)NC(C)C)cc4[nH]3)cc2)cc1 | 4 (≈ 9.7 µM) | 4 (≈ 9.7 µM) | 8 (≈ 19.4 µM) | 4 (≈ 9.7 µM) | 8 (≈ 19.4 µM) | 4 (≈ 9.7 µM) | 16 (≈ 38.8 µM) | > 32 | 8 (≈ 19.4 µM) | 4 (≈ 9.7 µM) | 32 (≈ 77.6 µM) | 4 (≈ 9.7 µM)
O=C(O)c1cn(C2CC2)c2cc(N3CCNCC3)c(F)cc2c1=O [CIPROFLOXACIN] | ≤ 0.12 | 0.5 (≈ 1.51 µM) |  | ≤ 0.12 | 8 (≈ 24.1 µM) | ≤ 0.12 |  | 0.5 (≈ 1.51 µM) | > 64 | ≤ 0.12 | 0.5 (≈ 1.51 µM) | ≤ 0.12
CN[C@H](CC(C)C)C(=O)N[C@H]1C(=O)N[C@@H](CC(N)=O)C(=O)N[C@H]2C(=O)N[C@H]3C(=O)N[C@H](C(=O)N[C@H](C(=O)O)c4cc(O)cc(O)c4-c4cc3ccc4O)[C@H](O)c3ccc(c(Cl)c3)Oc3cc2cc(c3O[C@@H]2O[C@H](CO)[C@@H](O)[C@H](O)[C@H]2O[C@H]2C[C@](C)(N)[C@H](O)[C@H](C)O2)Oc2ccc(cc2Cl)[C@H]1O [VANCOMYCIN] |  |  | 1 (≈ 0.69 µM) | 0.12 (≈ 0.0828 µM) |  |  | 0.12 (≈ 0.0828 µM) | 4 (≈ 2.76 µM) | > 64 |  | > 64 | 

Reference: ChEMBL document CHEMBL1153280, “Synthesis and in vitro activity of dicationic bis-benzimidazoles as a new class of anti-MRSA and anti-VRE agents” (2009)
